Where a name gives a salt, the structure may show the parent alone.

Kd, IC50 and inhibition data for 11 compounds are collected here from patent publication US9309222B2, “Phenyl linked quinolinyl modulators of RORγt” (Janssen Pharmaceutica NV, priority 2012, dated 2016).

The target in assay [1] is T1, human RORγt ligand binding domain (RORγt LBD) (Homo sapiens, UniProt P51449).
T1 construct: His-tag (N); TurboTEV protease cleavage site (ENLYFQG) (N); made in house; host or cells: E. coli (pHIS1, modified pET vector)
T1 sequence (P51449 with tags, fused parts or gaps): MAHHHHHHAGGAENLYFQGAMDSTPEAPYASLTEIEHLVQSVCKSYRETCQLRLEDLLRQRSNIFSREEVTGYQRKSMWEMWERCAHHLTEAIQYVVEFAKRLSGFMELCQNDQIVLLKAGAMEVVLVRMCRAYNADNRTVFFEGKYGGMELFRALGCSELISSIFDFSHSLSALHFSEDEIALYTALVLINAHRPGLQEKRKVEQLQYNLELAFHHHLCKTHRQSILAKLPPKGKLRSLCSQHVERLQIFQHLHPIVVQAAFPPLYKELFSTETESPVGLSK
In words: RORγt ThermoFluor assay (thermal shift, ligand binding affinity). The settings on record: estimated from concentration response of thermal shift. The method, boiled down: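 Thermal shift of 0.065 mg/mL RORγt with 60 μM 1,8-ANS in 100 mM Hepes pH 7.0, 10 mM NaCl, 2.5 mM GSH, 0.002% Tween-20. Compounds in 1:2 series from 10 mM DMSO stock. Dye fluorescence (500 nm emission) tracked versus temperature; ΔTm used to derive KD.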

Assay [2] has as its target T2, human RORγt LBD (Homo sapiens, UniProt P51449).
T2 construct: expressed in transfected cells
T2 sequence (P51449 258-518): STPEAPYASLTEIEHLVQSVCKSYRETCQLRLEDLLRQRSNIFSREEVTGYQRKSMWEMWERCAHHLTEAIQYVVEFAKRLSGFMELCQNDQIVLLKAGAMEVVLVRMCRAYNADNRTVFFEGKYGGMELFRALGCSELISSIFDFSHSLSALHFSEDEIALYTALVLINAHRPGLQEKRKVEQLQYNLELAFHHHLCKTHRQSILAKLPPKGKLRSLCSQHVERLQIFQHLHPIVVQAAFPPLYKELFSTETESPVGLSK
The assay can be described thus: RORγt reporter assay (GAL4-RORγt LBD luciferase in HEK293T cells). The format is cell-based. The settings on record: for IC50: HEK293T cells, 24 hours compound treatment; for inhibition at 6 µM: HEK-293T, read-out: RORγt reporter Assay, % inhibition @ 6 μM, HEK293T cells, 6 μM compound. The method, boiled down: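 HEK293T cells transiently co-transfected with pBIND (GAL4 DBD fused to wild-type human RORγt LBD, plus SV40-driven renilla luciferase) and pGL4.31 GAL4-responsive firefly luciferase reporter. Plated in phenol-red-free DMEM with 5% lipid-reduced FCS and treated with compound for 24 h. Firefly/renilla luminescence ratio plotted against compound concentration.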
A general note: In a reporter assay the amount or activity of a reporter protein is the signal.

As usually defined, the Kd is the constant that tells how readily two partners part at equilibrium. A word on the IC50: it is the concentration needed to halve the response being measured. Read a high IC50 as weaker potency in that assay. What is called inhibition is the change of the read-out against control, counted positive when it falls. For the compound `CCOc1nc2ccc(C(O)(c3cccnc3)c3cccc(Cl)c3)cc2c(Cl)c1-c1ccccc1` (stereo not drawn) [Example 81, (4-Chloro-2-ethoxy-3-phenylquinolin-6-yl)(3-chlorophenyl)pyridin-3-ylmethanol•TFA], in assay [1], the dissociation constant Kd was 170 nM. Moreover, in assay [2], the midpoint of inhibition, the IC50, lay at 320 nM and the inhibition at 6 µM was found to be 93%.
For `CC(C)(C)OC(=O)N1CCC(C(O)(c2cccnc2)c2ccc3nc(Cl)c(-c4ccccc4)c(Cl)c3c2)CC1` (stereo not drawn) [Example 91, tert-Butyl 4-[(2,4-dichloro-3-phenylquinolin-6-yl)(hydroxy)pyridin-3-ylmethyl]piperidine-1-carboxylate] the same measures were 220 nM, 200 nM and 97%.
On to `OC(c1ccncc1)(c1ccc2nc(Cl)c(-c3ccccc3)c(Cl)c2c1)c1ccccn1` (stereo not drawn) [Example 27, (2,4-Dichloro-3-phenylquinolin-6-yl)(pyridin-2-yl)pyridin-4-ylmethanol•TFA], for which the Kd in assay [1] was 8300 nM. Further, in assay [2], the IC50 was 4200 nM and the inhibition at 6 µM was determined as 75%.
As to `COCOc1ccc(C(O)(c2cccnc2)c2ccc3nc(Cl)c(-c4ccccc4)c(Cl)c3c2)cc1` (stereo not drawn) [Example 23, (2,4-Dichloro-3-phenylquinolin-6-yl)[4-(methoxymethoxy)phenyl]pyridin-3-ylmethanol], the equilibrium dissociation constant (Kd) in assay [1] is 230 nM. Moreover, in assay [2], the IC50 is 800 nM and the inhibition at 6 µM is 89%.
Turning to `Cc1nn(C)c(C)c1C(O)(c1ccccc1)c1ccc2nc(Cl)c(-c3ccccc3)c(Cl)c2c1` (stereo not drawn) [Example 4, (2,4-Dichloro-3-phenylquinolin-6-yl)(phenyl)(1,3,5-trimethyl-1H-pyrazol-4-yl)methanol], the dissociation constant Kd in assay [1] was 3300 nM. In assay [2], 3200 nM corresponded to half-maximal inhibition (IC50) and the inhibition at 6 µM stood at 97%.
For `OC(c1cccnc1)(c1cccc(Cl)c1)c1ccc2ncc(-c3ccccc3)c(Cl)c2c1` (stereo not drawn) [Example 52, (3-Chlorophenyl)(4-chloro-3-phenylquinolin-6-yl)pyridin-3-ylmethanol] the same measures were 1300 nM, approximately 3000 nM and 80%.
For `N#Cc1nc2ccc(C(O)(c3ccc(C(F)(F)F)nc3)c3cccc(Cl)c3)cc2c(C#N)c1-c1ccccc1` (stereo not drawn) [Example 114, 6-{(3-Chlorophenyl)(hydroxy) [6-(trifluoromethyl)pyridin-3-yl]methyl}-3-phenylquinoline-2,4-dicarbonitrile] the same measures were 610 nM, 740 nM and 104%.
For `Cn1cncc1C(O)(c1ccc2nc(C(F)(F)F)c(-c3ccccc3)c(C(F)(F)F)c2c1)c1ccccn1` (racemic) [Example 185a, (1-Methyl-1H-imidazol-5-yl)(3-phenyl-2,4-bis(trifluoromethyl)quinolin-6-yl)(pyridin-2-yl)methanol] the same measures were 74 nM, 200 nM and 100%.
Consider `Cn1cncc1C(O)(c1ccncc1)c1ccc2nc(Cl)c(-c3ccccc3)c(Cl)c2c1F` (stereo not drawn) [Example 162, (2,4-Dichloro-5-fluoro-3-phenylquinolin-6-yl)(1-methyl-1H-imidazol-5-yl)(pyridin-4-yl)methanol•TFA], for which the equilibrium dissociation constant (Kd) in assay [1] is 200 nM. Besides, in assay [2], the midpoint of inhibition, the IC50, lay at 910 nM and the inhibition at 6 µM was 92%.
The like results for `CCN(CC)c1nc2ccc(C(O)(c3cccnc3)c3cccc(Cl)c3)cc2c(OC)c1-c1ccccc1` (stereo not drawn) [Example 106, (3-Chlorophenyl)[2-(diethylamino)-4-methoxy-3-phenylquinolin-6-yl]pyridin-3-ylmethanol•TFA] were, in that order, 1300 nM, 2300 nM and 75%.
Consider `COc1ccc(C(O)(c2cccnc2)c2ccc3nc(Cl)c(-c4ccccc4)c(Cl)c3c2)cc1` (stereo not drawn) [Example 55, (2,4-Dichloro-3-phenylquinolin-6-yl)(4-methoxyphenyl)(pyridin-3-yl)methanol], for which the dissociation constant (Kd) in assay [1] was 330 nM. Also, in assay [2], the IC50 is 820 nM and the inhibition at 6 µM was 92%.
